The source of these data is ChEMBL document CHEMBL1156140, “Synthesis and antitumor-evaluation of cyclopropyl-containing combretastatin analogs” (Bioorg Med Chem Lett, 2009).

For one experiment, the system named is MCF7. Nature of the experiment: Cytotoxicity against human MCF7 cells by MTT assay. Type of experiment: functional, cell-based. On the technique in general: Tetrazolium assays rely on reduction of a dye to a coloured formazan, in cell work by metabolically active cells.
For the next experiment, the system named is HeLa. Nature of the experiment: Cytotoxicity against human HeLa cells by MTT assay. Type of experiment: functional, cell-based.

Usually IC50 stands for the concentration needed to halve the response being measured. A lower IC50 goes with greater potency in that assay. Take `COc1ccc(C#Cc2cc(OC)c(OC)c(OC)c2)cc1NC(=O)OC(C)(C)C`: the half-maximal inhibitory concentration (IC50) with MCF7 (Homo sapiens, MCF7) is greater than 30000 nM; in the experiment on HeLa (Homo sapiens, HeLa), greater than 30000 nM.
For `COc1ccc(/C=C\c2cc(OC)c(OC)c(OC)c2)cc1OP(=O)(O)O` [FOSBRETABULIN DISODIUM], the half-maximal inhibitory concentration (IC50) in the experiment with MCF7 (Homo sapiens, MCF7) was found to be 2 nM; in the experiment on HeLa (Homo sapiens, HeLa), 0.43 nM.
In the case of `COc1ccc(C#Cc2cc(OC)c(OC)c(OC)c2)cc1O`, the half-maximal inhibitory concentration (IC50) with MCF7 (Homo sapiens, MCF7) was found to be 1640 nM; in the experiment on HeLa (Homo sapiens, HeLa), 1540 nM.
On to `COc1ccc(/C=C\c2cc(OC)c(OC)c(OC)c2)cc1NC(=O)[C@@H](N)CO`, for which the IC50 stood at 25 nM with MCF7 (mcf7) and 3.7 nM in the experiment on HeLa (hela).
For `COCOc1cc(C#Cc2cc(OC)c(OC)c(OC)c2)ccc1OC`, the IC50 was 25600 nM in the experiment with MCF7 (Homo sapiens, MCF7) and 26800 nM in the experiment on HeLa (Homo sapiens, HeLa).
As for `COc1ccc(/C=C\c2cc(OC)c(OC)c(OC)c2)cc1NC(=O)OC(C)(C)C`, the IC50 with MCF7 (Homo sapiens, MCF7) came out at 3850 nM; in the experiment on HeLa (Homo sapiens, HeLa), 1170 nM.
On to `COc1ccc(C2CC2c2cc(OC)c(OC)c(OC)c2)cc1OP(=O)(OCc1ccccc1)OCc1ccccc1` (stereo not given), for which the IC50 in the experiment with MCF7 (Homo sapiens, MCF7) was 10800 nM; with HeLa (Homo sapiens, HeLa), 10200 nM.
As for `COc1ccc(/C=C\c2cc(OC)c(OC)c(OC)c2)cc1NC(=O)[C@@H](N)CO` [OMBRABULIN], the figures for the half-maximal inhibitory concentration (IC50) with MCF7 (mcf7) and with HeLa (hela) were 3.1 nM and 0.72 nM, respectively.
As for `COc1ccc(C2CC2c2cc(OC)c(OC)c(OC)c2)cc1N` (stereo not given), the half-maximal inhibitory concentration (IC50) is 212 nM in the experiment with MCF7 (Homo sapiens, MCF7) and 41 nM in the experiment with HeLa (Homo sapiens, HeLa).
With `COc1ccc(C2CC2c2cc(OC)c(OC)c(OC)c2)cc1NC(=O)[C@@H](N)CO` (stereo not given in full) [listing 1 of 2 here], the IC50 came out at 63 nM in the experiment with MCF7 (mcf7) and 32 nM with HeLa (hela).
The matching figures for `COc1ccc(C2CC2c2cc(OC)c(OC)c(OC)c2)cc1NC(=O)[C@@H](N)CO` (stereo not given in full) [listing 2 of 2 here]: 670 nM and 432 nM.
For `COc1ccc(/C=C\c2cc(OC)c(OC)c(OC)c2)cc1OP(=O)(OCc1ccccc1)OCc1ccccc1`, the half-maximal inhibitory concentration (IC50) in the experiment with MCF7 (Homo sapiens, MCF7) was found to be 1170 nM; in the experiment on HeLa (Homo sapiens, HeLa), 246 nM.
As for `COc1ccc(C2CC2c2cc(OC)c(OC)c(OC)c2)cc1OP(=O)(O)O` (stereo not given), the IC50 in the experiment with MCF7 (Homo sapiens, MCF7) amounted to 297 nM; in the experiment with HeLa (Homo sapiens, HeLa) it was 370 nM.
The like results for `COc1ccc(/C=C\c2cc(OC)c(OC)c(OC)c2)cc1O` [COMBRETASTATIN A4] were, in that order, 2.4 nM and 0.51 nM.
As for `COc1ccc(/C=C\c2cc(OC)c(OC)c(OC)c2)cc1N`, the concentration for half-maximal inhibition (IC50) was 3.5 nM in the experiment on MCF7 (Homo sapiens, MCF7) and 0.53 nM in the experiment with HeLa (Homo sapiens, HeLa).
Take `COc1ccc(C#Cc2cc(OC)c(OC)c(OC)c2)cc1N`: the IC50 in the experiment on MCF7 (Homo sapiens, MCF7) was greater than 30000 nM; in the experiment with HeLa (Homo sapiens, HeLa), greater than 30000 nM.
`COCOc1cc(C2CC2c2cc(OC)c(OC)c(OC)c2)ccc1OC` (stereo not given): the IC50 with MCF7 (Homo sapiens, MCF7) is 14000 nM; in the experiment on HeLa (Homo sapiens, HeLa), 24000 nM.
On to `COc1ccc([C@@H]2C[C@@H]2c2cc(OC)c(OC)c(OC)c2)cc1O`, for which the half-maximal inhibitory concentration (IC50) worked out at 102 nM in the experiment on MCF7 (Homo sapiens, MCF7) and 28 nM with HeLa (Homo sapiens, HeLa).
The matching figures for `COc1ccc(C2CC2c2cc(OC)c(OC)c(OC)c2)cc1NC(=O)OC(C)(C)C` (stereo not given): 11800 nM and 10100 nM.
For the compound `COCOc1cc(/C=C\c2cc(OC)c(OC)c(OC)c2)ccc1OC`, the IC50 was found to be 269 nM in the experiment on MCF7 (Homo sapiens, MCF7) and 197 nM in the experiment with HeLa (Homo sapiens, HeLa).
